Measurements as given in PubChem BioAssay (NCI).
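Assay format: 96-well plates, 48-hour exposure. GI50: concentration for 50% inhibition of growth. TGI: total growth inhibition.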

How the values were obtained:
Experiment in all cases: growth of human tumour cells (NCI), 48 h
EKVX NSCLC = system: EKVX NSCLC
SF-539 CNS = system: SF-539 CNS
UO-31 renal = system: UO-31 renal
T-47D breast = system: T-47D breast
MCF7 breast = system: MCF7 breast
SK-MEL-2 melanoma = system: SK-MEL-2 melanoma
TK-10 renal = system: TK-10 renal
SK-MEL-5 melanoma = system: SK-MEL-5 melanoma
NCI/ADR-RES ovarian = system: NCI/ADR-RES ovarian
SNB-75 CNS = system: SNB-75 CNS
OVCAR-4 ovarian = system: OVCAR-4 ovarian
SK-MEL-28 melanoma = system: SK-MEL-28 melanoma
HT29 colon = system: HT29 colon
A549 NSCLC = system: A549 NSCLC
OVCAR-8 ovarian = system: OVCAR-8 ovarian
MDA-MB-231 breast = system: MDA-MB-231 breast
UACC-257 melanoma = system: UACC-257 melanoma
HCC-2998 colon = system: HCC-2998 colon
DU-145 prostate = system: DU-145 prostate
PC-3 prostate = system: PC-3 prostate
HOP-92 NSCLC = system: HOP-92 NSCLC
CAKI-1 renal = system: CAKI-1 renal
SR leukemia = system: SR leukemia
786-0 renal = system: 786-0 renal

CC#C/C(=N\OC[C@H]1COCCN1)c1ccc2ncnc(Nc3ccc(OCc4cccc(F)c4)c(Cl)c3)c2c1
GI50 (EKVX NSCLC): 0.343 µM | TGI (EKVX NSCLC): 2.44 µM | GI50 (SF-539 CNS): 1.68 µM | TGI (SF-539 CNS): 3.2 µM | GI50 (UO-31 renal): 1.13 µM | TGI (UO-31 renal): 2.41 µM | GI50 (T-47D breast): 0.0582 µM | TGI (T-47D breast): 4.47 µM | GI50 (MCF7 breast): 1.57 µM | TGI (MCF7 breast): 3.05 µM | GI50 (SK-MEL-2 melanoma): 1.97 µM | TGI (SK-MEL-2 melanoma): 3.61 µM | GI50 (TK-10 renal): 0.0335 µM | TGI (TK-10 renal): 1.48 µM | GI50 (SK-MEL-5 melanoma): 1.85 µM | TGI (SK-MEL-5 melanoma): 3.45 µM | GI50 (NCI/ADR-RES ovarian): 1.27 µM | TGI (NCI/ADR-RES ovarian): 2.87 µM | GI50 (SNB-75 CNS): 1.46 µM | TGI (SNB-75 CNS): 2.82 µM | GI50 (OVCAR-4 ovarian): 1.52 µM | TGI (OVCAR-4 ovarian): 3.16 µM | GI50 (SK-MEL-28 melanoma): 1.77 µM | TGI (SK-MEL-28 melanoma): 3.34 µM | GI50 (HT29 colon): 1.62 µM | TGI (HT29 colon): 3.09 µM | GI50 (A549 NSCLC): 1.64 µM | TGI (A549 NSCLC): 9.85 µM | GI50 (OVCAR-8 ovarian): 1.76 µM | TGI (OVCAR-8 ovarian): 4.27 µM | GI50 (MDA-MB-231 breast): 1.72 µM | TGI (MDA-MB-231 breast): 3.14 µM | GI50 (UACC-257 melanoma): 1.85 µM | TGI (UACC-257 melanoma): 3.45 µM | GI50 (HCC-2998 colon): 1.84 µM | TGI (HCC-2998 colon): 3.41 µM | GI50 (DU-145 prostate): 1.1 µM | TGI (DU-145 prostate): 2.36 µM | GI50 (PC-3 prostate): 1.81 µM | TGI (PC-3 prostate): 3.98 µM | GI50 (HOP-92 NSCLC): 1.14 µM | TGI (HOP-92 NSCLC): 2.48 µM | GI50 (CAKI-1 renal): 0.183 µM | TGI (CAKI-1 renal): 10.4 µM | GI50 (SR leukemia): 1.68 µM | TGI (SR leukemia): 5.34 µM | GI50 (786-0 renal): 1.52 µM | TGI (786-0 renal): 3.07 µM
